Patent US11472778B2, “Hepatitis C virus NS3/4A protease inhibitors” (priority 2017, dated 2022)
Read-outs that look alike come from different tables or passages of the source.

Assays:
[1] = tested on: wild-type HCV replicon in Huh7 cells; assay: Cell-based drug susceptibility (replicon) assay, wild-type; settings: Hepatitis C virus, read-out: Replicon EC50 (nM) WT
How it was run: (§1)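 Luciferase signal (RLU) at 96 h post-electroporation served as the replication read-out. Huh7 cells received replicon RNA of a Con1 1b backbone bearing H77 1a NS3, wild-type or site-directed mutant, and were dosed with increasing protease inhibitor concentrations.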

[2] = target: T1, GT3a NS3/4A protease (Hepatitis C virus genotype 3a, UniProt Q81495); assay: biochemical; settings: for Ki (Fold change) GT3a NS3/4A Protease: Table 3, Ki GT3a relative to GT1a WT
T1 construct: drug-resistant variant D168A, and GT3a NS3/4A protease; made in house; host or cells: Escherichia coli BL21(DE3)
Protocol: For each assay, 2 nM of NS3/4A protease (GT1, D168A and GT3) was pre-incubated at room temperature for 1 h with increasing concentration of inhibitors in assay buffer [50 mM Tris, 5% glycerol, 10 mM DTT, 0.6 mM LDAO, and 4% dimethyl sulfoxide]. Inhibition assays were performed in nonbinding surface 96-well black half-area plates (Corning) in a reaction volume of 60 μt. […] Three independent data sets were collected for each inhibitor with each protease construct.

[3] = tested on: HCV replicon D168V variant in Huh7 cells; assay: microbe, parasite or virus in culture; assay type: cell-based, Hepatitis C virus; settings: for EC50: Hepatitis C virus; for Replicon EC50 (Fold change) D168V: Table 4, relative to WT replicon
How it was run: as §1

[4] = target: T2, GT1a D168A NS3/4A protease (UniProt P27958, C1185S/D1194A, species not given); assay type: biochemical, Hepatitis C virus; settings: read-out: Ki (nM) GT1a D168A NS3/4A Protease
T2 construct: Ki (nM) GT1a D168A NS3/4A Protease
How it was run: (§2)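 Enzyme (GT1a wild type or D168A mutant, 2 nM) was preincubated with inhibitor dilutions for 1 h at room temperature in pH 7.5 Tris buffer with glycerol, DTT, LDAO and 4% DMSO.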

[5] = target: GT1a D168A NS3/4A protease; assay type: biochemical, Hepatitis C virus; settings: Table 3; Ki D168A relative to GT1a WT
How it was run: as §2

[6] = target: T3, wild-type GT1a NS3/4A protease (UniProt P27958, C1185S, species not given); assay type: biochemical, Hepatitis C virus; settings: read-out: Ki (nM) GT1a WT NS3/4A Protease
T3 construct: Ki (nM) GT1a WT NS3/4A Protease
How it was run: as §2

[7] = tested on: HCV replicon A156T variant in Huh7 cells; assay: microbe, parasite or virus in culture; assay type: cell-based, Hepatitis C virus; settings: for EC50: Hepatitis C virus; for Replicon EC50 (Fold change) A156T: Table 4, relative to WT replicon
How it was run: as §1

[8] = tested on: HCV replicon D168A variant in Huh7 cells; assay: microbe, parasite or virus in culture; assay type: cell-based, Hepatitis C virus; settings: for EC50: Hepatitis C virus; for Replicon EC50 (Fold change) D168A: Table 4, relative to WT replicon
How it was run: as §1

[9] = tested on: HCV replicon R155K variant in Huh7 cells; assay: microbe, parasite or virus in culture; assay type: cell-based, Hepatitis C virus; settings: for EC50: Hepatitis C virus; for Replicon EC50 (Fold change) R155K: Table 4, relative to WT replicon
How it was run: as §1

[10] = rcm bond, 15-membered ring, Zhan 1b, 1,2-DCE, 70.0 °C
[11] = Huh-7, 96 h, Table 2, Huh7 cells, luciferase 96 h
[12] = Huh-7, 96 h, read-out: Replicon EC50 (nM) D168V, Table 2, Huh7 cells, luciferase 96 h
[13] = Huh-7, read-out: Replicon EC50 (nM) D168V, Table 4
[14] = Huh-7, 96 h, read-out: Replicon EC50 (nM) A156T, Table 2, Huh7 cells, luciferase 96 h
[15] = Huh-7, read-out: Replicon EC50 (nM) A156T, Table 4
[16] = Huh-7, 96 h, read-out: Replicon EC50 (nM) D168A, Table 2, Huh7 cells, luciferase 96 h
[17] = Huh-7, read-out: Replicon EC50 (nM) D168A, Table 4
[18] = Huh-7, 96 h, read-out: Replicon EC50 (nM) R155K, Table 2, Huh7 cells, luciferase 96 h
[19] = Huh-7, read-out: Replicon EC50 (nM) R155K, Table 4

T1 sequence (Q81495 1033-1214): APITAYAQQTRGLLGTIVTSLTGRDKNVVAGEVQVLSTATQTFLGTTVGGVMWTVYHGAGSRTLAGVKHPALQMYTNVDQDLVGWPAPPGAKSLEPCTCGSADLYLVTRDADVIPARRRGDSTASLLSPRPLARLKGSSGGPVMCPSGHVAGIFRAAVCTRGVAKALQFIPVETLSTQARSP

Compound: COc1ccc2nc(C)c(O[C@@H]3C[C@H]4C(=O)N[C@]5(C(=O)NS(=O)(=O)C6CC6)C[C@H]5/C=C\CCCCC[C@H](NC(=O)OC(C)(C)C)C(=O)N4C3)nc2c1 [Compound 18b, tert-Butyl ((2R,6S,13aS,14aR,16aS,Z)-14a-((cyclopropylsulfonyl)carbamoyl)-2-((7-methoxy-3-methylquinoxalin-2-yl)oxy)-5,16-dioxo-1,2,3,5,6,7,8,9,10,11,13a,14,14a,15,16,16a-hexadecahydrocyclopropa[e]pyrrolo[1,2-a][1,4]diazacyclopentadecin-6-yl)carbamate]
- EC50 [1, 11]: 0.39 nM
- EC50 ([1]; Huh-7, Table 4): 0.39 nM
- Ki [2]: 152 nM
- Ki (Fold change) GT3a NS3/4A Protease [2]: (45) fold
- EC50 [3, 12]: 3.17 nM
- EC50 [3, 13]: 3.17 nM
- Replicon EC50 (Fold change) D168V [3]: (8) fold
- Ki ([4]; Table 1): 50.9 nM
- Ki ([4]; Table 3): 50.9 ± 3.7 nM
- Ki (Fold change) GT1a D168A NS3/4A Protease [5]: (15) fold
- Ki ([6]; Table 1): 3.4 nM
- Ki ([6]; Table 3): 3.4 nM
- EC50 [7, 14]: 5.95 nM
- EC50 [7, 15]: 5.95 nM
- Replicon EC50 (Fold change) A156T [7]: (15) fold
- EC50 [8, 16]: 4.24 nM
- EC50 [8, 17]: 4.24 nM
- Replicon EC50 (Fold change) D168A [8]: (11) fold
- EC50 [9, 18]: 1.17 nM
- EC50 [9, 19]: 1.17 nM
- Replicon EC50 (Fold change) R155K [9]: (3) fold
- ring closure, isolated yield ([10]; 6.5 mM): 45%

Compound: COc1ccc2nc(Cl)c(O[C@@H]3C[C@H]4C(=O)N[C@]5(C(=O)NS(=O)(=O)C6CC6)C[C@H]5/C=C\CCCCC[C@H](NC(=O)OC(C)(C)C)C(=O)N4C3)nc2c1 [Compound 18c, tert-Butyl ((2R,6S,13aS,14aR,16aS,Z)-2-((3-chloro-7-methoxyquinoxalin-2-yl)oxy)-14a-((cyclopropylsulfonyl)carbamoyl)-5,16-dioxo-1,2,3,5,6,7,8,9,10,11,13a,14,14a,15,16,16a-hexadecahydrocyclopropa[e]pyrrolo[1,2-a][1,4]diazacyclopentadecin-6-yl)carbamate]
- EC50 ([1]; Huh-7, Table 4): 0.16 nM
- Ki [2]: 67.5 nM
- Ki (Fold change) GT3a NS3/4A Protease [2]: (63) fold
- EC50 [3, 12]: < 1 nM
- EC50 [3, 13]: 0.73 nM
- Replicon EC50 (Fold change) D168V [3]: (5) fold
- Ki ([4]; Table 1): 39.8 nM
- Ki ([4]; Table 3): 39.8 ± 3.4 nM
- Ki (Fold change) GT1a D168A NS3/4A Protease [5]: (37) fold
- Ki ([6]; Table 1): 1.07 nM
- Ki ([6]; Table 3): 1.07 nM
- EC50 [7, 14]: 16.2 nM
- EC50 [7, 15]: 16.2 nM
- Replicon EC50 (Fold change) A156T [7]: (101) fold
- EC50 [8, 16]: < 2 nM
- EC50 [8, 17]: 1.42 nM
- Replicon EC50 (Fold change) D168A [8]: (9) fold
- EC50 [9, 19]: 0.44 nM
- Replicon EC50 (Fold change) R155K [9]: (3) fold
- ring closure, isolated yield ([10]; 6.3 mM): 50%

Compound: CCc1nc2ccc(OC)cc2nc1O[C@@H]1C[C@H]2C(=O)N[C@]3(C(=O)NS(=O)(=O)C4(C)CC4)C[C@H]3/C=C\CCCCC[C@H](NC(=O)OC(C)(C)C)C(=O)N2C1 [Compound 19a, tert-Butyl ((2R,6S,13aS,14aR,16aS,Z)-2-((3-ethyl-7-methoxyquinoxalin-2-yl)oxy)-14a-(((1-methylcyclopropyl)sulfonyl)carbamoyl)-5,16-dioxo-1,2,3,5,6,7,8,9,10,11,13a,14,14a,15,16,16a-hexadecahydrocyclopropa[e]pyrrolo[1,2-a][1,4]diazacyclopentadecin-6-yl)carbamate]
- EC50 [1, 11]: 0.43 nM
- EC50 ([1]; Huh-7, Table 4): 0.43 nM
- Ki [2]: 171 nM
- Ki (Fold change) GT3a NS3/4A Protease [2]: (94) fold
- EC50 [3, 12]: 6.42 nM
- EC50 [3, 13]: 6.42 nM
- Replicon EC50 (Fold change) D168V [3]: (15) fold
- Ki ([4]; Table 1): 55.2 nM
- Ki ([4]; Table 3): 55.2 ± 5.3 nM
- Ki (Fold change) GT1a D168A NS3/4A Protease [5]: (30) fold
- Ki ([6]; Table 1): 1.82 nM
- Ki ([6]; Table 3): 1.82 nM
- EC50 [7, 14]: 4.52 nM
- EC50 [7, 15]: 4.52 nM
- Replicon EC50 (Fold change) A156T [7]: (11) fold
- EC50 [8, 16]: 4.97 nM
- EC50 [8, 17]: 4.97 nM
- Replicon EC50 (Fold change) D168A [8]: (12) fold
- EC50 [9, 18]: 1.8 nM
- EC50 [9, 19]: 1.8 nM
- Replicon EC50 (Fold change) R155K [9]: (4) fold
- ring closure, isolated yield ([10]; from C=CCCCCC[C@H](NC(=O)OC(C)(C)C)C(=O)N1C[C@H](Oc2nc3cc(OC)ccc3nc2CC)C[C@H]1C(=O)N[C@]1(C(=O)NS(=O)(=O)C2(C)CC2)C[C@H]1C=C, 6.0 mM): 71%

Compound: COc1ccc2nc(Cl)c(O[C@@H]3C[C@H]4C(=O)N[C@]5(C(=O)NS(=O)(=O)C6(C)CC6)C[C@H]5/C=C\CCCCC[C@H](NC(=O)OC(C)(C)C)C(=O)N4C3)nc2c1 [Compound 19c, tert-Butyl ((2R,6S,13aS,14aR,16aS,Z)-2-((3-chloro-7-methoxyquinoxalin-2-yl)oxy)-14a-(((1-methylcyclopropyl)sulfonyl)carbamoyl)-5,16-dioxo-1,2,3,5,6,7,8,9,10,11,13a,14,14a,15,16,16a-hexadecahydrocyclopropa[e]pyrrolo[1,2-a][1,4]diazacyclopentadecin-6-yl)carbamate]
- EC50 ([1]; Huh-7, Table 4): 0.18 nM
- Ki [2]: 53.6 nM
- Ki (Fold change) GT3a NS3/4A Protease [2]: (48) fold
- EC50 [3, 13]: 0.49 nM
- Replicon EC50 (Fold change) D168V [3]: (3) fold
- Ki ([4]; Table 1): 77.7 nM
- Ki ([4]; Table 3): 77.7 ± 6.1 nM
- Ki (Fold change) GT1a D168A NS3/4A Protease [5]: (70) fold
- Ki ([6]; Table 1): 1.11 nM
- Ki ([6]; Table 3): 1.11 nM
- EC50 [7, 14]: 8.86 nM
- EC50 [7, 15]: 8.86 nM
- Replicon EC50 (Fold change) A156T [7]: (49) fold
- EC50 [8, 16]: < 2 nM
- EC50 [8, 17]: 1.07 nM
- Replicon EC50 (Fold change) D168A [8]: (6) fold
- EC50 [9, 19]: 0.4 nM
- Replicon EC50 (Fold change) R155K [9]: (2) fold
- ring closure, isolated yield ([10]; 5.0 mM): 86%
